PubChem BioAssay AID248 (DTP/NCI, 2004)
Several values for one entry are separate records, joined by “and”; a condition that tells them apart may be missing. Equal values may be shown once. Toxic doses and inconclusive results are not listed. Cut-off read from the data, not from the text of the source: active = T/C of 150% or more; inactive = T/C below 125%.

Tested on: L1210 leukemia ip in BDF1 mice, survival T/C
Test: NCI In Vivo Anticancer Drug Screen. Data for tumor model L1210 Leukemia (intraperitoneal) in B6D2F1 (BDF1) mice
Conditions: endpoint: mean survival time, higher = longer survival
Summary of the method: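 Mice bearing the transplanted tumor received compound or vehicle. Survival of the treated group was divided by that of the vehicle-treated control group to give the ratio.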

[1] = dose: 100.0 mg/kg/injection, schedule: Q01DX009 (ip), vehicle: Klucel (hydroxypropylcellulose) (HPC)
[2] = dose: 100.0 mg/kg/injection, schedule: Q04DX003 (ip), vehicle: Klucel (hydroxypropylcellulose) (HPC)
[3] = dose: 200.0 mg/kg/injection, schedule: Q01DX009 (ip), vehicle: Klucel (hydroxypropylcellulose) (HPC)
[4] = dose: 200.0 mg/kg/injection, schedule: Q04DX003 (ip), vehicle: Klucel (hydroxypropylcellulose) (HPC)
[5] = dose: 400.0 mg/kg/injection, schedule: Q01DX009 (ip), vehicle: Klucel (hydroxypropylcellulose) (HPC)
[6] = dose: 400.0 mg/kg/injection, schedule: Q04DX003 (ip), vehicle: Klucel (hydroxypropylcellulose) (HPC)
[7] = dose: 100.0 mg/kg/injection, schedule: Q01DX001 (ip), vehicle: saline
[8] = dose: 200.0 mg/kg/injection, schedule: Q01DX001 (ip), vehicle: saline
[9] = dose: 25.0 mg/kg/injection, schedule: Q04DX003 (ip), vehicle: saline
[10] = dose: 50.0 mg/kg/injection, schedule: Q04DX003 (ip), vehicle: saline
[11] = dose: 100.0 mg/kg/injection, schedule: Q04DX003 (ip), vehicle: saline

Measured: T/C

O=C(/C=C/C(=O)Oc1c(Cl)c(Cl)c(Cl)c(Cl)c1Cl)Oc1c(Cl)c(Cl)c(Cl)c(Cl)c1Cl
inactive: [1] 100 % of control | [2] 111 % of control | [3] 104 % of control | [4] 93 % of control | [5] 100 % of control | [6] 105 % of control

CC(C)CN(CC(C)C)/N=C/c1cc([N+](=O)[O-])ccc1O
inactive: dose: 100.0 mg/kg/injection, schedule: Q04DX002 (ip), vehicle: saline with Tween-80 97 % of control | dose: 200.0 mg/kg/injection, schedule: Q04DX002 (ip), vehicle: saline with Tween-80 91 % of control | dose: 400.0 mg/kg/injection, schedule: Q04DX002 (ip), vehicle: saline with Tween-80 87 % of control

COc1cc(OC)c(NC(=O)c2cc3ccccc3cc2O)cc1Cl
inactive: [1] 96 % of control | [2] 101 % of control | [3] 101 % of control | [4] 101 % of control | [5] 96 % of control | [6] 111 % of control

COC(=O)c1ccc(C(=O)O)nc1
inactive: [1] 104 % of control | [3] 94 % of control | [5] 102 % of control

CC12CC3CC(C)(C1)CC(SCCCCCN=C(N)CSSCC(N)=NCCCCCSC14CC5CC(C)(CC(C)(C5)C1)C4)(C3)C2
inactive: dose: 10.0 mg/kg/injection, schedule: Q04DX002 (ip), vehicle: Klucel (hydroxypropylcellulose) (HPC) 110 % of control | dose: 20.0 mg/kg/injection, schedule: Q04DX002 (ip), vehicle: Klucel (hydroxypropylcellulose) (HPC) 102 % of control | dose: 40.0 mg/kg/injection, schedule: Q04DX002 (ip), vehicle: Klucel (hydroxypropylcellulose) (HPC) 87 % of control

COc1ccc2c(c1)CCN(C1=C(C)C(=O)CC1)C2CC(=O)O (stereo not drawn)
inactive: [7] 104 % of control | [8] 101 % of control | dose: 400.0 mg/kg/injection, schedule: Q01DX001 (ip), vehicle: saline 90 % of control

CCC1C(=O)OCc2c1ccn(C)c2=O (stereo not drawn)
inactive: dose: 25.0 mg/kg/injection, schedule: Q01DX001 (ip), vehicle: saline 114 % of control | [9] 95 % of control | dose: 50.0 mg/kg/injection, schedule: Q01DX001 (ip), vehicle: saline 104 % of control | [10] 95 % of control | [7] 103 % of control | [11] 101 % of control | [8] 106 % of control | dose: 200.0 mg/kg/injection, schedule: Q04DX003 (ip), vehicle: saline 101 % of control

N#CC(c1ccccc1)C(C/C(=N\O)c1ccccc1)c1ccccc1 (stereo not drawn)
inactive: dose: 100.0 mg/kg/injection, schedule: Q04DX002 (ip), vehicle: Klucel (hydroxypropylcellulose) (HPC) 111 % of control | dose: 200.0 mg/kg/injection, schedule: Q04DX002 (ip), vehicle: Klucel (hydroxypropylcellulose) (HPC) 100 % of control | dose: 400.0 mg/kg/injection, schedule: Q04DX002 (ip), vehicle: Klucel (hydroxypropylcellulose) (HPC) 96 % of control

O=c1cc(-c2ccc(Cl)cc2)oc(-c2ccc(Cl)cc2)c1
inactive: dose: 50.0 mg/kg/injection, schedule: Q01DX009 (ip), vehicle: Klucel (hydroxypropylcellulose) (HPC) 94 % of control | [1] 93 % of control | [2] 89 % of control | [4] 92 % of control

C[C@]12C=CC(=O)C=C1CC[C@H]1[C@@H]3C[C@@H](O)[C@](O)(C(=O)CO)[C@@]3(C)C[C@H](O)[C@@]12F
inactive: dose: 50.0 mg/kg/injection, schedule: Q04DX003 (sc), vehicle: steriod suspending solution 102 % of control | dose: 100.0 mg/kg/injection, schedule: Q01DX001 (sc), vehicle: steriod suspending solution 105 % of control | dose: 100.0 mg/kg/injection, schedule: Q04DX003 (sc), vehicle: steriod suspending solution 97 % of control | dose: 200.0 mg/kg/injection, schedule: Q01DX001 (sc), vehicle: steriod suspending solution 107 % of control | dose: 200.0 mg/kg/injection, schedule: Q04DX003 (sc), vehicle: steriod suspending solution 106 % of control | dose: 400.0 mg/kg/injection, schedule: Q01DX001 (sc), vehicle: steriod suspending solution 105 % of control | dose: 400.0 mg/kg/injection, schedule: Q04DX003 (sc), vehicle: steriod suspending solution 110 % of control

COc1cc2c(cc1OC)CC[N+](C)=C2
inactive: dose: 12.5 mg/kg/injection, schedule: Q01DX009 (ip), vehicle: saline 92 % of control | dose: 25.0 mg/kg/injection, schedule: Q01DX009 (ip), vehicle: saline 95 % of control | [9] 108 % of control | dose: 50.0 mg/kg/injection, schedule: Q01DX009 (ip), vehicle: saline 93 % of control | [10] 100 % of control | dose: 100.0 mg/kg/injection, schedule: Q01DX009 (ip), vehicle: saline 96 % of control | [11] 103 % of control and 106 % of control

OCCN1CCC(CCCC2CCN(CCO)CC2)CC1
inactive: dose: 10.0 mg/kg/injection, schedule: Q01DX Z (ip), vehicle: saline 94 % of control | dose: 30.0 mg/kg/injection, schedule: Q01DX Z (ip), vehicle: saline 92 % of control | dose: 100.0 mg/kg/injection, schedule: Q01DX Z (ip), vehicle: saline 94 % of control

CCN1CC(=O)N(C)C1=S
inactive: dose: 50.0 mg/kg/injection, schedule: Q01DX001 (ip), vehicle: carboxymethylcellulose (CMC) 103 % of control | dose: 100.0 mg/kg/injection, schedule: Q01DX001 (ip), vehicle: carboxymethylcellulose (CMC) 100 % of control | dose: 200.0 mg/kg/injection, schedule: Q01DX001 (ip), vehicle: carboxymethylcellulose (CMC) 97 % of control | dose: 400.0 mg/kg/injection, schedule: Q01DX001 (ip), vehicle: carboxymethylcellulose (CMC) 118 % of control

CC(C)=NOC(N)=O
inactive: dose: 50.0 mg/kg/injection, schedule: Q01DX Z (ip), vehicle: water 108 % of control | dose: 100.0 mg/kg/injection, schedule: Q01DX Z (ip), vehicle: water 100 % of control | dose: 200.0 mg/kg/injection, schedule: Q01DX Z (ip), vehicle: water 100 % of control | dose: 400.0 mg/kg/injection, schedule: Q01DX Z (ip), vehicle: water 100 % of control

O=C(CN1CCCCC1)c1ccc2oc3ccccc3c2c1
inactive: [2] 96 % of control | [4] 96 % of control | [6] 87 % of control

c1ccc(-c2cc3ccncc3c3ccccc23)cc1
inactive: dose: 100.0 mg/kg/injection, schedule: Q04DX003 (ip), vehicle: water 102 % of control | dose: 200.0 mg/kg/injection, schedule: Q04DX003 (ip), vehicle: water 96 % of control | dose: 400.0 mg/kg/injection, schedule: Q04DX003 (ip), vehicle: water 96 % of control

O=S(=O)(O)c1cccc2cccc(N=Nc3ccc(O)cc3)c12
inactive: dose: 100.0 mg/kg/injection, schedule: Q01DX001 (ip), vehicle: other 94 % of control | dose: 200.0 mg/kg/injection, schedule: Q01DX001 (ip), vehicle: other 103 % of control | dose: 400.0 mg/kg/injection, schedule: Q01DX001 (ip), vehicle: other 94 % of control
